What was measured:
[1] = (§1) Growth inhibition of human RKO cells at 1:10 molar ratio of compound in presence of N-{3-[3-cyclopropyl-5-(2-fluoro-4-iodo-phenylamino)-6,8-dimethyl- 2,4,7-trioxo-3,4,6,7-tetrahydro-2H-pyrido[4,3-d]pyrimidin-1-yl]phenyl}acetamide incubated for 72 hrs by Cell-titer-Glo reagent based assay; type: functional
[2] = Growth inhibition of human MDA-MB-175-VII cells incubated for 72 hrs by Cell-titer-Glo reagent based assay; type: functional
[3] = Growth inhibition of human Calu6 cells at 1:10 molar ratio of compound in presence of N-{3-[3-cyclopropyl-5-(2-fluoro-4-iodo-phenylamino)-6,8-dimethyl- 2,4,7-trioxo-3,4,6,7-tetrahydro-2H-pyrido[4,3-d]pyrimidin-1-yl]phenyl}acetamide incubated for 72 hrs by Cell-titer-Glo reagent based assay; type: functional; conditions: Calu-6, 72 h
[4] = Growth inhibition of human HCC827 cells incubated for 72 hrs by Cell-titer-Glo reagent based assay; type: functional; conditions: HCC827, 72 h
[5] = Growth inhibition of human DLD1 cells incubated for 72 hrs by Cell-titer-Glo reagent based assay; type: functional; conditions: DLD-1, 72 h
[6] = Growth inhibition of human SW1417 cells incubated for 72 hrs by Cell-titer-Glo reagent based assay; type: functional; conditions: SW1417, 72 h
[7] = Growth inhibition of human T84 cells incubated for 72 hrs by Cell-titer-Glo reagent based assay; type: functional; conditions: T84, 72 h
[8] = Growth inhibition of human A549 cells incubated for 72 hrs by Cell-titer-Glo reagent based assay; type: functional; conditions: A549, 72 h
[9] = Growth inhibition of human NCI-H1792 cells incubated for 72 hrs by Cell-titer-Glo reagent based assay; type: functional; conditions: NCI-H1792, 72 h
[10] = as §1, with “SW1463” for “RKO”, “cells assessed combination index” for “cells”; type: functional
[11] = Growth inhibition of human NCI-H1155 cells incubated for 72 hrs by Cell-titer-Glo reagent based assay; type: functional; conditions: NCI-H1155, 72 h
[12] = Growth inhibition of human NCI-H727 cells incubated for 72 hrs by Cell-titer-Glo reagent based assay; type: functional; conditions: NCI-H727, 72 h
[13] = Growth inhibition of human SW1463 cells incubated for 72 hrs by Cell-titer-Glo reagent based assay; type: functional; conditions: SW1463, 72 h
[14] = Growth inhibition of human RKO cells incubated for 72 hrs by Cell-titer-Glo reagent based assay; type: functional
[15] = Growth inhibition of human MV522 cells incubated for 72 hrs by Cell-titer-Glo reagent based assay; type: functional; conditions: MV522, 72 h
[16] = Growth inhibition of human Calu3 cells incubated for 72 hrs by Cell-titer-Glo reagent based assay; type: functional; conditions: Calu-3, 72 h
[17] = Growth inhibition of human SW837 cells incubated for 72 hrs by Cell-titer-Glo reagent based assay; type: functional; conditions: SW837, 72 h
[18] = Growth inhibition of human SW900 cells incubated for 72 hrs by Cell-titer-Glo reagent based assay; type: functional; conditions: SW900, 72 h
[19] = Growth inhibition of human SW480 cells incubated for 72 hrs by Cell-titer-Glo reagent based assay; type: functional; conditions: SW480, 72 h
[20] = Growth inhibition of human HT-29 cells incubated for 72 hrs by Cell-titer-Glo reagent based assay; type: functional; conditions: HT-29, 72 h
[21] = Growth inhibition of human KM12 cells incubated for 72 hrs by Cell-titer-Glo reagent based assay; type: functional; conditions: KM12, 72 h
[22] = Growth inhibition of human NCI-H1355 cells incubated for 72 hrs by Cell-titer-Glo reagent based assay; type: functional; conditions: NCI-H1355, 72 h
[23] = Growth inhibition of human A427 cells incubated for 72 hrs by Cell-titer-Glo reagent based assay; type: functional; conditions: A-427, 72 h
[24] = as §1, with “LS1034” for “RKO”, “cells assessed combination index” for “cells”; type: functional, LS-1034
[25] = Growth inhibition of human LS1034 cells incubated for 72 hrs by Cell-titer-Glo reagent based assay; type: functional; conditions: LS-1034, 72 h
[26] = Growth inhibition of human EFM19 cells incubated for 72 hrs by Cell-titer-Glo reagent based assay; type: functional; conditions: EFM-19, 72 h
[27] = Growth inhibition of human NCI-H23 cells incubated for 72 hrs by Cell-titer-Glo reagent based assay; type: functional; conditions: NCI-H23, 72 h
[28] = Growth inhibition of human COLO205 cells incubated for 72 hrs by Cell-titer-Glo reagent based assay; type: functional; conditions: COLO 205, 72 h
[29] = Growth inhibition of human SW1573 cells incubated for 72 hrs by Cell-titer-Glo reagent based assay; type: functional; conditions: SW1573, 72 h
[30] = Growth inhibition of human HOP62 cells incubated for 72 hrs by Cell-titer-Glo reagent based assay; type: functional; conditions: HOP-62, 72 h
[31] = Growth inhibition of human COLO205 cells assessed combination index at 1:10 molar ratio of compound in presence of N-{(1S)-2-amino-1-[(3-fluorophenyl)methyl]ethyl}-5-chloro-4-(4-chloro-1-methyl-1H-pyrazol-5-yl)-2-thiophenecar- boxamide incubated for 72 hrs by Cell-titer-Glo reagent based assay; type: functional, COLO 205
[32] = Growth inhibition of human SW837 cells at 1:10 molar ratio of compound in presence of N-{(1S)-2-amino-1-[(3-fluorophenyl)methyl]ethyl}-5-chloro-4-(4-chloro-1-methyl-1H-pyrazol-5-yl)-2-thiophenecar- boxamide incubated for 72 hrs by Cell-titer-Glo reagent based assay; type: functional; conditions: SW837, 72 h
[33] = Growth inhibition of human SW1463 cells at 1:10 molar ratio of compound in presence of N-{(1S)-2-amino-1-[(3-fluorophenyl)methyl]ethyl}-5-chloro-4-(4-chloro-1-methyl-1H-pyrazol-5-yl)-2-thiophenecar- boxamide incubated for 72 hrs by Cell-titer-Glo reagent based assay; type: functional; conditions: SW1463, 72 h
[34] = Growth inhibition of human Calu6 cells assessed combination index at 1:10 molar ratio of compound in presence of N-{(1S)-2-amino-1-[(3-fluorophenyl)methyl]ethyl}-5-chloro-4-(4-chloro-1-methyl-1H-pyrazol-5-yl)-2-thiophenecar- boxamide incubated for 72 hrs by Cell-titer-Glo reagent based assay; type: functional, Calu-6
[35] = Growth inhibition of human NCI-H727 cells at 1:10 molar ratio of compound in presence of N-{(1S)-2-amino-1-[(3-fluorophenyl)methyl]ethyl}-5-chloro-4-(4-chloro-1-methyl-1H-pyrazol-5-yl)-2-thiophenecar- boxamide incubated for 72 hrs by Cell-titer-Glo reagent based assay; type: functional; conditions: NCI-H727, 72 h
[36] = Growth inhibition of human DLD1 cells at 1:10 molar ratio of compound in presence of N-{(1S)-2-amino-1-[(3-fluorophenyl)methyl]ethyl}-5-chloro-4-(4-chloro-1-methyl-1H-pyrazol-5-yl)-2-thiophenecar- boxamide incubated for 72 hrs by Cell-titer-Glo reagent based assay; type: functional; conditions: DLD-1, 72 h

Compound	IC50 [2] [nM]	IC50 [4] [nM]	IC50 [5] [nM]	IC50 [6] [nM]	IC50 [7] [nM]	IC50 [8] [nM]	IC50 [9] [nM]	IC50 [11] [nM]	IC50 [12] [nM]	IC50 [13] [nM]	IC50 [14] [nM]	IC50 [15] [nM]	IC50 [16] [nM]	IC50 [17] [nM]	IC50 [18] [nM]	IC50 [19] [nM]	IC50 [20] [nM]	IC50 [21] [nM]	IC50 [22] [nM]	IC50 [23] [nM]	other results
Cn1ncc(Cl)c1-c1cc(C(=O)N[C@H](CN)Cc2cccc(F)c2)sc1Cl [AFURESERTIB]	794	> 8000	> 10000	> 10000	> 10000	5990	7310	865	4800	9720	1810	3040	> 8000	> 10000	> 10000	> 10000	1380	2250	6680	> 8000	IC50 [1]: 54 nM; IC50 [3]: 31 nM; CI [10]: 0.94; CI [24]: 0.84; IC50 [25]: 4340 nM; IC50 [26]: 430 nM; IC50 [27]: 7120 nM; IC50 [28]: 2570 nM; IC50 [29]: > 8000 nM; IC50 [30]: > 10000 nM
CC(=O)Nc1cccc(-n2c(=O)n(C3CC3)c(=O)c3c(Nc4ccc(I)cc4F)n(C)c(=O)c(C)c32)c1 [TRAMETINIB]	96	> 1000	632	3	61	34	53	> 1000	2	4	18	2	158	74	127	37	2	23	52	22	CI [31]: 0.88; IC50 [32]: 25 nM; IC50 [33]: 4 nM; CI [34]: 0.79; IC50 [25]: 5 nM; IC50 [26]: > 1000 nM; IC50 [27]: 29 nM; IC50 [35]: 2 nM; IC50 [28]: 1 nM; IC50 [29]: > 1000 nM; IC50 [30]: > 1000 nM; IC50 [36]: 93 nM

— ChEMBL document CHEMBL3880386, “Combination comprising the MEK inhibitor N-{3-[3-cyclopropyl-5-(2-fluoro-4-iodo- phenylamino)-6,8-dimethyl-2,4,7-trioxo-3,4,6,7-tetrahydro-2H-pyrido[4,3-d]pyrimidin-1-yl]phenyl}acetamide and the Akt inhibitor N-{(1S)-2-amino-1-[(3-fluorophenyl)methyl]ethyl}-5-chloro-4-(4-chloro-1- …” (2014)
